# Assay results as given in PubChem BioAssay (NCI).
#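 A five-concentration, 48-hour dose response in 96-well plates underlies each endpoint, interpolated linearly between surrounding concentrations. TGI is the concentration that stops growth completely.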
# Columns and labels:
# Assay in all cases: inhibition of tumour cell growth, NCI panel, 48 h
# SF-295 CNS = test system: SF-295 CNS
# SF-539 CNS = test system: SF-539 CNS
# CAKI-1 renal = test system: CAKI-1 renal
# NCI/ADR-RES ovarian = test system: NCI/ADR-RES ovarian
# SW-620 colon = test system: SW-620 colon
# NCI-H23 lung = test system: NCI-H23 lung
# SNB-75 CNS = test system: SNB-75 CNS
# UO-31 renal = test system: UO-31 renal
# MCF7 breast = test system: MCF7 breast
# LOX IMVI melanoma = test system: LOX IMVI melanoma
# M14 melanoma = test system: M14 melanoma
# HOP-92 NSCLC = test system: HOP-92 NSCLC
# SN12C renal = test system: SN12C renal
# UACC-257 melanoma = test system: UACC-257 melanoma
# HCT-15 colon = test system: HCT-15 colon
# A549 NSCLC = test system: A549 NSCLC
# OVCAR-5 ovarian = test system: OVCAR-5 ovarian
# 786-0 renal = test system: 786-0 renal
# ACHN renal = test system: ACHN renal
Compound,TGI (SF-295 CNS),TGI (SF-539 CNS),TGI (CAKI-1 renal),TGI (NCI/ADR-RES ovarian),TGI (SW-620 colon),TGI (NCI-H23 lung),TGI (SNB-75 CNS),TGI (UO-31 renal),TGI (MCF7 breast),TGI (LOX IMVI melanoma),TGI (M14 melanoma),TGI (HOP-92 NSCLC),TGI (SN12C renal),TGI (UACC-257 melanoma),TGI (HCT-15 colon),TGI (A549 NSCLC),TGI (OVCAR-5 ovarian),TGI (786-0 renal),TGI (ACHN renal)
Cc1cc(NS(=O)(=O)c2ccc(Nc3c4ccccc4nc4ccc(C(=O)Nc5ccc(S(N)(=O)=O)cc5)cc34)cc2)no1,> 100 µM,> 100 µM,> 100 µM,> 100 µM,> 100 µM,> 100 µM,> 100 µM,> 100 µM,> 100 µM,> 100 µM,> 100 µM,> 100 µM,> 100 µM,> 100 µM,> 100 µM,> 100 µM,> 100 µM,> 100 µM,> 100 µM
NC(=O)c1[nH]cnc1/N=N/SCC(N)C(=O)O (centres undefined),> 75.1 µM,> 100 µM,> 100 µM,> 100 µM,> 100 µM,> 100 µM,> 100 µM,> 93.9 µM,> 100 µM,> 100 µM,> 100 µM,> 100 µM,> 58 µM,> 100 µM,> 100 µM,> 100 µM,> 100 µM,> 100 µM,> 100 µM
COc1cc2c(cc1OC)C(N)CC2=O (centres undefined),> 100 µM,> 100 µM,> 100 µM,> 100 µM,> 100 µM,> 100 µM,> 100 µM,> 100 µM,> 100 µM,> 100 µM,> 100 µM,> 100 µM,> 100 µM,> 100 µM,> 100 µM,> 100 µM,> 100 µM,> 100 µM,> 100 µM
Cc1ccc(/C=C/C(=N/NC(=O)N/N=C(/C=C/c2ccc(C)cc2)C(C)(C)CN2CCCCC2)C(C)(C)CN2CCCCC2)cc1,3.13 µM,3.24 µM,5.56 µM,3.08 µM,3.35 µM,4.82 µM,3.08 µM,2.28 µM,2.83 µM,2.64 µM,1.8 µM,3.44 µM,3.27 µM,3.1 µM,3.25 µM,3.02 µM,4.98 µM,2.68 µM,4.23 µM
CC1OC(OC2C(O)COC(OC3C(C)OC(OC4C(OC(=O)[C@]56CCC(C)(C)C[C@@H]5C5=CCC7[C@@]8(C)C[C@H](O)[C@H](OC9OC(CO)C(O)C(OC%10OC(CO)C(O)C(O)C%10O)C9O)[C@@](C)(CO)[C@@H]8CC[C@@]7(C)[C@]5(C)CC6)OCC(O)C4O)C(O)C3O)C2O)C(O)C(O)C1O (some centres undefined),28.4 µM,34.4 µM,19.1 µM,31.9 µM,30.4 µM,31 µM,35 µM,16 µM,36.1 µM,35 µM,26.3 µM,38.4 µM,25.2 µM,35.6 µM,38.7 µM,28.6 µM,27 µM,30 µM,34.5 µM
NC(=Nc1ccc(O)cc1)S(=O)O,> 100 µM,> 100 µM,> 100 µM,> 100 µM,> 100 µM,> 100 µM,> 100 µM,> 100 µM,> 100 µM,> 100 µM,> 100 µM,> 100 µM,> 100 µM,> 100 µM,> 100 µM,> 100 µM,> 100 µM,> 100 µM,> 100 µM
C=CCNC1=C2C[C@@H](C)C[C@@H](OC)[C@H](OC(=O)CN)[C@H](C)/C=C(\C)[C@@H](OC(N)=O)[C@H](OC)/C=C\C=C(/C)C(=O)NC(=CC1=O)C2=O,12.6 µM,15.9 µM,18.1 µM,> 100 µM,> 100 µM,21.3 µM,9.59 µM,19.7 µM,12.8 µM,6.45 µM,22.3 µM,8.71 µM,17.1 µM,15.7 µM,22.5 µM,21 µM,25 µM,20.7 µM,19.6 µM
C=CCOC(=O)[C@@H]1C[C@@H](OC(C)(C)C)CN1C(=O)[C@@H]1[C@H]2OC(C)(C)O[C@H]2CN1C(=O)OCC1c2ccccc2-c2ccccc21,34.4 µM,28.9 µM,16.9 µM,9.87 µM,43.4 µM,33.9 µM,33.9 µM,0.614 µM,> 100 µM,4.87 µM,36 µM,35 µM,32.2 µM,35.4 µM,39.4 µM,31.9 µM,32.9 µM,9.97 µM,30.1 µM
O=C1NC(N2CCCC(CO)C2)=N/C1=C\c1ccc(Cl)cc1 (centres undefined),> 100 µM,> 100 µM,> 100 µM,> 100 µM,> 100 µM,> 100 µM,> 100 µM,> 100 µM,> 100 µM,> 100 µM,> 100 µM,> 100 µM,> 100 µM,> 100 µM,> 100 µM,> 100 µM,> 100 µM,> 100 µM,> 100 µM
C=CC[C@@]1(C)CCCCCCCCC[C@@](C)(CC=C)C1=O,37.4 µM,> 100 µM,> 100 µM,> 100 µM,63.5 µM,63.9 µM,92.4 µM,> 100 µM,> 100 µM,33.6 µM,> 100 µM,> 100 µM,76.8 µM,58.6 µM,> 100 µM,> 100 µM,> 100 µM,> 100 µM,> 100 µM
NC(N)=NCCCC(NC(=O)OCCCCCCn1ccc(N)nc1=O)C(=O)O (centres undefined),> 100 µM,> 100 µM,> 100 µM,> 100 µM,> 100 µM,> 100 µM,> 100 µM,> 100 µM,> 100 µM,> 100 µM,> 100 µM,> 100 µM,> 100 µM,> 100 µM,> 100 µM,> 100 µM,> 100 µM,> 100 µM,> 100 µM
